Assay results from paper PMC12002099, “Recombinant Production and Characterization of Six Ene‐reductases from Penicillium steckii” (Chembiochem, 2025).

Assays:
PsOYE4 [1] = target: T1, PsOYE4 (Penicillium steckii, UniProt A0A1V6TQX2); assay: steady-state kinetics, NADPH consumption, Michaelis-Menten fit; format: biochemical; details: co-substrate p-benzoquinone
T1 construct: gene PENSTE_c003G03501
Excerpt: steady-state kinetics, NADPH consumption, Michaelis-Menten fit on PsOYE4

PsOYE3 = target: T2, PsOYE3 (Penicillium steckii, UniProt A0A1V6SNM3); assay: UV-Vis flavin spectrum of purified enzyme, FMN release on denaturation; format: binding; details: co-purified cofactor
T2 construct: gene PENSTE_c027G02138
T2 sequence (A0A1V6SNM3 1-421): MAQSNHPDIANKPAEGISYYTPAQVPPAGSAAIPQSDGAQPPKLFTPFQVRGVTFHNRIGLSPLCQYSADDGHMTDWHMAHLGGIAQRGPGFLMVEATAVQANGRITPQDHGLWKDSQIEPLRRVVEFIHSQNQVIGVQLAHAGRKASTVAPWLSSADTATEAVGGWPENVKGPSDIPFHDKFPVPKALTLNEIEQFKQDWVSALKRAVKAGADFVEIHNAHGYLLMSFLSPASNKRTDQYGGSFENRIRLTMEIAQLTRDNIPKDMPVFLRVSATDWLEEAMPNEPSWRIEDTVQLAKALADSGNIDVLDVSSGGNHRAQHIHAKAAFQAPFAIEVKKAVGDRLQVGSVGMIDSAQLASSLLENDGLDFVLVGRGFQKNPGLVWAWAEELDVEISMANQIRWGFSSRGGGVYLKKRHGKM

PsOYE2 = target: T3, PsOYE2 (Penicillium steckii, UniProt A0A1V6SMJ6); assay: X-ray crystal structure, […] Å; format: binding; details: co-purified cofactor; site completed by adjacent protomer
T3 construct: gene PENSTE_c029G02105; tag-free, His-SUMO fusion cut off, expressed in E. coli; homodimer; residues 2-413 seen, C-terminus 414-422 not visible
T3 sequence (A0A1V6SMJ6 1-422): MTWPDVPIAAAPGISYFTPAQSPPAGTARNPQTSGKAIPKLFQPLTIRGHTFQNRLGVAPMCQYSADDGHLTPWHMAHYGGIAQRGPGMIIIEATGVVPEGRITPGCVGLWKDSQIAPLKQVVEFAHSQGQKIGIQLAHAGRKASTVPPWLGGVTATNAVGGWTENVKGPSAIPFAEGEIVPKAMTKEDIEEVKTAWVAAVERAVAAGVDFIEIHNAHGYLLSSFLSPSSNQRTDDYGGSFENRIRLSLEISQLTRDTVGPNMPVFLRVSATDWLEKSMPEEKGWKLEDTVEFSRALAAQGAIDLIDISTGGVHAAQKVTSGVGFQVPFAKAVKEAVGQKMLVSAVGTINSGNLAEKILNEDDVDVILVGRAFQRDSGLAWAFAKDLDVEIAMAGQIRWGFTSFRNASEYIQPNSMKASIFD

PsOYE1 = target: T4, PsOYE1 (Penicillium steckii, UniProt A0A1V6T993); assay: UV-Vis flavin spectrum of purified enzyme, FMN release on denaturation; format: binding; details: co-purified cofactor
T4 construct: gene PENSTE_c009G01003
T4 sequence (A0A1V6T993 1-408): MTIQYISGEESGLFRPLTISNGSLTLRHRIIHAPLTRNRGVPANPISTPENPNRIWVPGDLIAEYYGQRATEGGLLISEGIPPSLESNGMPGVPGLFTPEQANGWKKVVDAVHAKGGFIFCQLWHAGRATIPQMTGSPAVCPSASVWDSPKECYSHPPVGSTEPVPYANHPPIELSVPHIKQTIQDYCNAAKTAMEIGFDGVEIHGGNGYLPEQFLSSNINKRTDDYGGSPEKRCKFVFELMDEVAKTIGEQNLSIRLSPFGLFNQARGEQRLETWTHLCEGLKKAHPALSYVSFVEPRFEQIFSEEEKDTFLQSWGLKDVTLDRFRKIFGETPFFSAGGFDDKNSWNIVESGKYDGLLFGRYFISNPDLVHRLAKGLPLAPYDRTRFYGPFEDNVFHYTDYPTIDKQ

PsOYE4 [2] = target: T1, PsOYE4; assay: as above; format: binding; details: co-purified cofactor
PsOYE6 = target: T5, PsOYE6 (Penicillium steckii, UniProt A0A1V6SJW2); assay: as above; format: binding; details: co-purified cofactor
T5 construct: gene PENSTE_c042G09698
T5 sequence (A0A1V6SJW2 1-370): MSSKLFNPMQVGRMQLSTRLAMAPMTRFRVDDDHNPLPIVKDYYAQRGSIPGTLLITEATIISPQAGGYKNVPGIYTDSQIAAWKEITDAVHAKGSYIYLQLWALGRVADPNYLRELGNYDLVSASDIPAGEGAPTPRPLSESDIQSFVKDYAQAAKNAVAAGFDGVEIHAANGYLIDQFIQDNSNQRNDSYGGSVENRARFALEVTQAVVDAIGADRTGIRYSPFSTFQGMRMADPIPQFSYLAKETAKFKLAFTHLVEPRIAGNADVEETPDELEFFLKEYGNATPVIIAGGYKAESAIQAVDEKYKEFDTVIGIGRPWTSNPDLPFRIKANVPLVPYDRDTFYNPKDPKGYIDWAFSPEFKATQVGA

SMILES: NC(=O)C1=CN([C@@H]2O[C@H](COP(=O)(O)OP(=O)(O)OC[C@H]3O[C@@H](n4cnc5c(N)ncnc54)[C@H](OP(=O)(O)O)[C@@H]3O)[C@@H](O)[C@H]2O)C=CC1 [NADPH]
- Km (PsOYE4 [1]): 300 ± 100 µM

SMILES: Cc1cc2nc3c(=O)[nH]c(=O)nc-3n(C[C@H](O)[C@H](O)[C@H](O)COP(=O)(O)O)c2cc1C [FMN]
- UV-Vis flavin spectrum of purified enzyme, FMN release on denaturation (PsOYE3): Expression and subsequent purification led to reasonably high yields of pure, soluble, and FMN‐bound proteins
- X-ray crystal structure, 2.3 Å (PsOYE2): The FMN cofactor, situated on the C‐terminal side of the barrel, has interactions
- UV-Vis flavin spectrum of purified enzyme, FMN release on denaturation (PsOYE1): Expression and subsequent purification led to reasonably high yields of pure, soluble, and FMN‐bound proteins
- UV-Vis flavin spectrum of purified enzyme, FMN release on denaturation (PsOYE4 [2]): Expression and subsequent purification led to reasonably high yields of pure, soluble, and FMN‐bound proteins
- UV-Vis flavin spectrum of purified enzyme, FMN release on denaturation (PsOYE6): Expression and subsequent purification led to reasonably high yields of pure, soluble, and FMN‐bound proteins
